Experimental findings from ChEMBL document CHEMBL1124142, “N6-[2-(3,5-dimethoxyphenyl)-2-(2-methylphenyl)ethyl]adenosine and its uronamide derivatives. Novel adenosine agonists with both high affinity and high selectivity for the adenosine A2 receptor” (J Med Chem, 1988) are described below.

Assay [1] concerns the target T1, Adenosine A2 receptor (Rattus norvegicus, UniProt P29276+P30543).
In another assay the target is T2, Adenosine receptor A1 (Rattus norvegicus, UniProt P25099).
T2 sequence (P25099 whole entry): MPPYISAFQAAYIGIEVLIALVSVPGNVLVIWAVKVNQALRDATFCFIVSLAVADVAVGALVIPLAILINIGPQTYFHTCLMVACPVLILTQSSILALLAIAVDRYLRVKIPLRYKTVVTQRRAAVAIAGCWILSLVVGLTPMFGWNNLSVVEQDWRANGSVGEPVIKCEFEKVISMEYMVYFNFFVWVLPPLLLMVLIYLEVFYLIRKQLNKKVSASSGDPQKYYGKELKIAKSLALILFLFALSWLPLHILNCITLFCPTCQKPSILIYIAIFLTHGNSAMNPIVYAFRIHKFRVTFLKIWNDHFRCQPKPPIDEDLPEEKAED
Put plainly: biochemical.

For assay [2], the target named is T1, Adenosine A2 receptor. Nature of the assay: Binding affinity at adenosine A2 receptor from rat striatal membranes by [3H]NECA displacement.

Molecules are shown by their SMILES.

Description for Adenosine receptor A1: Binding affinity at adenosine A1 receptor from rat brain membranes by [3H]N6-cyclohexyladenosine displacement.

With `Nc1nc(Nc2ccccc2)nc2c1ncn2[C@@H]1O[C@H](CO)[C@@H](O)[C@H]1O`, the Ki (as a rule, the equilibrium dissociation constant of an inhibitor or competing ligand from its target) on Adenosine A2 receptor [1] stood at 116 nM. This lies in the sub-micromolar range.
Same read-out and setting: the same measure for `OC[C@H]1O[C@@H](n2cnc3c(NCc4cccc5ccccc45)ncnc32)[C@H](O)[C@@H]1O`: 9.4 nM.
In the case of `OC[C@H]1OC(n2cnc3c(NCC(c4cccc(Cl)c4)c4cccc(Cl)c4)ncnc32)[C@H](O)[C@@H]1O` (some centres not stated), the values for the Ki on Adenosine A2 receptor [1] and on Adenosine receptor A1 were 6 nM and 2.6 nM, respectively.
The matching figures for `OC[C@H]1OC(n2cnc3c(NCC(c4ccccc4)c4c(Cl)cccc4Cl)ncnc32)[C@H](O)[C@@H]1O` (some centres not stated): 19 nM and 61 nM.
Turning to `COc1cc(OC)cc(C(CNc2ncnc3c2ncn3C2O[C@H](C(=O)NC3CC3)[C@@H](O)[C@H]2O)c2ccccc2C)c1` (some centres not stated), the Ki came to 8.7 nM at Adenosine A2 receptor [2] and 232 nM on Adenosine receptor A1.
`OC[C@H]1OC(n2cnc3c(NCC(c4ccccc4)c4cc(Cl)cc(Cl)c4)ncnc32)[C@H](O)[C@@H]1O` (some centres not stated) returned a Ki at Adenosine receptor A1 of 18.4 nM.
With `Cc1cccc(C)c1C(CNc1ncnc2c1ncn2C1O[C@H](CO)[C@@H](O)[C@H]1O)c1ccccc1` (some centres not stated), the Ki at Adenosine A2 receptor [1] was 62 nM; at Adenosine receptor A1, 229 nM.
The matching figures for `Cc1cccc(C(CNc2ncnc3c2ncn3C2O[C@H](CO)[C@@H](O)[C@H]2O)c2cccc(C)c2)c1` (some centres not stated): 18.8 nM and 9.3 nM.
Take `CCNC(=O)[C@H]1OC(n2cnc3c(NCC(c4cc(OC)cc(OC)c4)c4ccccc4C)ncnc32)[C@H](O)[C@@H]1O` (some centres not stated): the values for the Ki on Adenosine A2 receptor [2] and at Adenosine receptor A1 were 5.6 nM and 207 nM, respectively.
For `CNC(=O)[C@H]1OC(n2cnc3c(NCC(c4cc(OC)cc(OC)c4)c4ccccc4C)ncnc32)[C@H](O)[C@@H]1O` (some centres not stated), in that order: 43 nM and 1010 nM.
As to `COc1cc(OC)cc(C(CNc2ncnc3c2ncn3C2O[C@H](CO)[C@@H](O)[C@H]2O)c2c(C)cccc2C)c1` (some centres not stated), the Ki on Adenosine A2 receptor [1] stood at 19.5 nM; at Adenosine receptor A1, 140 nM.
The matching figures for `COc1cc(OC)cc(C(CNc2ncnc3c2ncn3C2O[C@H](CO)[C@@H](O)[C@H]2O)c2ccccc2)c1` (some centres not stated): 6.1 nM and 30.2 nM.
For the compound `COc1cc(OC)cc(C(CNc2ncnc3c2ncn3[C@@H]2O[C@H](CO)[C@@H](O)[C@H]2O)c2ccccc2C)c1` (single isomer, unassigned), the figures for the Ki on Adenosine A2 receptor [1] and at Adenosine receptor A1 were 3.1 nM and 118 nM, respectively.
`COc1cc(OC)cc(C(CNc2ncnc3c2ncn3[C@@H]2O[C@H](CO)[C@@H](O)[C@H]2O)c2ccccc2C)c1` (single isomer, unassigned; (+)): the inhibitory constant (Ki) on Adenosine A2 receptor [1] is 6.2 nM; at Adenosine receptor A1, 188 nM.
Consider `COc1cc(OC)cc(C(CNc2ncnc3c2ncn3[C@@H]2O[C@H](CO)[C@@H](O)[C@H]2O)c2ccccc2C)c1` (stereo in doubt; 16), for which the values for the Ki on Adenosine A2 receptor [1] and on Adenosine receptor A1 were 4.4 nM and 142 nM, respectively.
